In paper PMC9518264, “Design and synthesis of novel quinazolinone-based derivatives as EGFR inhibitors with antitumor activity” (Journal of Enzyme Inhibition and Medicinal Chemistry, 2022):

Experiments:
[1] = system: 786-0; test: cells; format: cell-based; conditions: Homo sapiens; 786-0; 10 μM; read-out: growth inhibition % (GI%)
[2] = system: IGROV1; test: cells; format: cell-based; conditions: Homo sapiens, IGROV-1; IGROV1; 10 μM; read-out: growth inhibition % (GI%)
[3] = system: HCT-116; test: cells; format: cell-based; conditions: Homo sapiens; HCT-116; 10 μM; read-out: growth inhibition % (GI%)
[4] = system: NCI/ADR-RES; test: cells; format: cell-based; conditions: Homo sapiens, 10 μM, read-out: growth inhibition % (GI%)
[5] = system: HOP-62; test: cells; format: cell-based; conditions: Homo sapiens; HOP-62; 10 μM; read-out: growth inhibition % (GI%)
[6] = system: SF-268; test: cells; format: cell-based; conditions: Homo sapiens; SF-268; 10 μM; read-out: growth inhibition % (GI%)
[7] = system: BT-549; test: cells; format: cell-based; conditions: Homo sapiens; BT-549; 10 μM; read-out: growth inhibition % (GI%)
[8] = system: TK-10; test: cells; format: cell-based; conditions: Homo sapiens; TK-10; 10 μM; read-out: growth inhibition % (GI%)
[9] = system: EKVX; test: cells; format: cell-based; conditions: Homo sapiens, 10 μM, read-out: growth inhibition % (GI%)
[10] = system: KM12; test: cells; format: cell-based; conditions: Homo sapiens; KM12; 10 μM; read-out: growth inhibition % (GI%)
[11] = system: OVCAR-5; test: cells; format: cell-based; conditions: Homo sapiens; OVCAR-5; 10 μM; read-out: growth inhibition % (GI%)
[12] = system: NCI-H460; test: cells; format: cell-based; conditions: Homo sapiens; NCI-H460; 10 μM; read-out: growth inhibition % (GI%)
[13] = system: SF-539; test: cells; format: cell-based; conditions: Homo sapiens; SF-539; 10 μM; read-out: growth inhibition % (GI%)
[14] = system: MCF7; test: cells; format: cell-based; conditions: Homo sapiens; MCF7; 10 μM; read-out: growth inhibition % (GI%)
[15] = system: HL-60(TB); test: cells; format: cell-based; conditions: Homo sapiens; HL-60(TB); 10 μM; read-out: growth inhibition % (GI%)
[16] = system: NCI-H522; test: cells; format: cell-based; conditions: Homo sapiens; NCI-H522; 10 μM; read-out: growth inhibition % (GI%)
[17] = system: NCI-H322M; test: cells; format: cell-based; conditions: Homo sapiens, 10 μM, read-out: growth inhibition % (GI%)
[18] = system: ACHN; test: cells; format: cell-based; conditions: Homo sapiens, 10 μM, read-out: growth inhibition % (GI%)
[19] = system: T-47D; test: cells; format: cell-based; conditions: Homo sapiens, T47D; T-47D; 10 μM; read-out: growth inhibition % (GI%)
[20] = system: LOX IMIV; test: cells; format: cell-based; conditions: Homo sapiens, 60 cell; LOX IMIV; 10 μM; read-out: growth inhibition % (GI%)
[21] = system: UACC-257; test: cells; format: cell-based; conditions: Homo sapiens; UACC-257; 10 μM; read-out: growth inhibition % (GI%)
[22] = system: U251; test: cells; format: cell-based; conditions: Homo sapiens, U-251; U251; 10 μM; read-out: growth inhibition % (GI%)
[23] = system: NCI-H226; test: cells; format: cell-based; conditions: Homo sapiens; NCI-H226; 10 μM; read-out: growth inhibition % (GI%)
[24] = system: SNB-19; test: cells; format: cell-based; conditions: Homo sapiens; SNB-19; 10 μM; read-out: growth inhibition % (GI%)
[25] = system: SK-OV-3; test: cells; format: cell-based; conditions: Homo sapiens; SK-OV-3; 10 μM; read-out: growth inhibition % (GI%)
[26] = system: PC-3; test: cells; format: cell-based; conditions: Homo sapiens; PC-3; 10 μM; read-out: growth inhibition % (GI%)
[27] = system: A549/ATCC; test: cells; format: cell-based; conditions: Homo sapiens; A549/ATCC; 10 μM; read-out: growth inhibition % (GI%)
[28] = system: A498; test: cells; format: cell-based; conditions: Homo sapiens; A498; 10 μM; read-out: growth inhibition % (GI%)
[29] = system: CCRF-CEM; test: cells; format: cell-based; conditions: Homo sapiens, 10 μM, read-out: growth inhibition % (GI%)
[30] = system: HCT-15; test: cells; format: cell-based; conditions: Homo sapiens; HCT-15; 10 μM; read-out: growth inhibition % (GI%)
[31] = system: MOLT-4; test: cells; format: cell-based; conditions: Homo sapiens; MOLT-4; 10 μM; read-out: growth inhibition % (GI%)
[32] = system: panel of 60 tumour cell lines; test: NCI 60 cell line antiproliferative screening (SRB), whole panel or subpanels (means, ranges, words); format: cell-based, human
[33] = system: OVCAR-4; test: cells; format: cell-based; conditions: Homo sapiens; OVCAR-4; 10 μM; read-out: growth inhibition % (GI%)
[34] = system: MALME-3M; test: cells; format: cell-based; conditions: Homo sapiens; MALME-3M; 10 μM; read-out: growth inhibition % (GI%)
[35] = system: SK-MEL-2; test: cells; format: cell-based; conditions: Homo sapiens; SK-MEL-2; 10 μM; read-out: growth inhibition % (GI%)
[36] = system: HOP-92; test: cells; format: cell-based; conditions: Homo sapiens; HOP-92; 10 μM; read-out: growth inhibition % (GI%)
[37] = system: OVCAR-8; test: cells; format: cell-based; conditions: Homo sapiens; OVCAR-8; 10 μM; read-out: growth inhibition % (GI%)
[38] = system: SF-295; test: cells; format: cell-based; conditions: Homo sapiens; SF-295; 10 μM; read-out: growth inhibition % (GI%)
[39] = system: SK-MEL-5; test: cells; format: cell-based; conditions: Homo sapiens; SK-MEL-5; 10 μM; read-out: growth inhibition % (GI%)
[40] = system: MDA-MB-468; test: NCI 60 cell line antiproliferative screening (SRB), Breast cancer; conditions: Homo sapiens, MDA-MB-468, read-out: growth inhibition % (GI%)
[41] = system: OVCAR-3; test: NCI 60 cell line antiproliferative screening (SRB), Ovarian cancer; conditions: Homo sapiens, OVCAR-3, read-out: growth inhibition % (GI%)
[42] = system: COLO-205; test: cells; format: cell-based; conditions: Homo sapiens; COLO-205; 10 μM; read-out: growth inhibition % (GI%)
[43] = system: SN12C; test: cells; format: cell-based; conditions: Homo sapiens, 10 μM, read-out: growth inhibition % (GI%)
[44] = system: DU-145; test: cells; format: cell-based; conditions: Homo sapiens; DU-145; 10 μM; read-out: growth inhibition % (GI%)
[45] = system: HCC-2998; test: cells; format: cell-based; conditions: Homo sapiens; HCC-2998; 10 μM; read-out: growth inhibition % (GI%)
[46] = system: SNB-75; test: cells; format: cell-based; conditions: Homo sapiens; SNB-75; 10 μM; read-out: growth inhibition % (GI%)

In the case of `CN1CCN(c2ccc(C=NNC(=O)CSc3nc4ccccc4c(=O)n3-c3ccccc3)cc2)CC1` [6i, N'-(4–(4-methylpiperazin-1-yl)benzylidene)-2-((4-oxo-3-phenyl-3,4-dihydroquinazolin-2-yl)thio) acetohydrazide], the inhibition at 10 µM [1] is reported as < 15%, the inhibition at 10 µM [2] is reported as < 15% and the inhibition at 10 µM [3] is reported as < 15%. The inhibition at 10 µM [4] was < 15%, the inhibition at 10 µM [5] was < 15% and the inhibition at 10 µM [6] was < 15%. The inhibition at 10 µM [7] was < 15%, the inhibition at 10 µM [8] was < 15% and the inhibition at 10 µM [9] was < 15%. For the same compound, the inhibition at 10 µM [10] was < 15%, the inhibition at 10 µM [11] was < 15% and the inhibition at 10 µM [12] was < 15%. For the same compound, the inhibition at 10 µM [13] was < 15%, the inhibition at 10 µM [14] was < 15% and the inhibition at 10 µM [15] was < 15%. For the same compound, the inhibition at 10 µM [16] was < 15%, the inhibition at 10 µM [17] was < 15% and the inhibition at 10 µM [18] was < 15%. For the same compound, the inhibition at 10 µM [19] was < 15%, the inhibition at 10 µM [20] was < 15% and the inhibition at 10 µM [21] was < 15%. The inhibition at 10 µM [22] was < 15%, the inhibition at 10 µM [23] was < 15% and the inhibition at 10 µM [24] was < 15%. The inhibition at 10 µM [25] was < 15%, the inhibition at 10 µM [26] was < 15% and the inhibition at 10 µM [27] was < 15%. For the same compound, the inhibition at 10 µM [28] was 10.2%, the inhibition at 10 µM [29] was < 15% and the inhibition at 10 µM [30] was < 15%. The inhibition at 10 µM [31] was < 15%, the “antiproliferative activity against all tested cell lines” value ([32]; 10 μM single dose) was “did not show activity” and the inhibition at 10 µM ([32]; Homo sapiens, 60 cell, mean over the cell line panel, 10 μM, read-out: Mean growth inhibition % (mean GI%)) was < 0%. The inhibition at 10 µM [33] was < 15%, the inhibition at 10 µM [34] was < 15% and the inhibition at 10 µM [35] was < 15%. For the same compound, the inhibition at 10 µM [36] was < 15%, the inhibition at 10 µM [37] was < 15% and the inhibition at 10 µM [38] was < 15%. For the same compound, the inhibition at 10 µM [39] was < 15%, the inhibition at 10 µM [40] was < 15% and the inhibition at 10 µM [41] was < 15%. For the same compound, the inhibition at 10 µM [42] was < 15%, the inhibition at 10 µM [43] was < 15% and the inhibition at 10 µM [44] was < 15%. The inhibition at 10 µM [45] was < 15% and the inhibition at 10 µM [46] was < 15%.
